Reference: patent US20100190834A1, “COMPOSITION FOR OPHTALMIC DISEASE ASSOCIATED WITH HYPOXIA OR ISCHEMIA” (R-TECH UENO, LTD., priority 2007, published 2010)
Marks after values point to notes of the source that are not given here.

System: oxygen-induced retinopathy model mouse
Test: Oxygen-induced retinopathy model mouse (model of retinopathy of prematurity), retina flat mount analysis
Format: in vivo, C57BL/6N mouse
Details: for abnormal angiogenesis region (%) / normal blood vessel region (%): average, p < 0.05 vs medium; for avascular region (result in words) / effect on abnormal angiogenesis (result in words): summary of Table 1 and Table 2, compared with medium group
Method: A model experiment of retinopathy of prematurity, which is an ophthalmic disease associated with hypoxia or ischemia, was performed based on a quantitative analysis method of oxygen-induced retinopathy model mouse (Experimental Eye Research 84 (2007) 529-536).
The date of birth of mouse was taken as day 0 of age. On day 7 of age, the mouse was placed in a high oxygen concentration breeding device together with the mother mouse and bred under high oxygen conditions (oxygen concentration 75±5%) up to day 12 of age. On day 12 of age, the high oxygen concentration breeding was terminated and the mouse was immediately placed under general breeding with intraperitoneal administration of the medium or test solution 1 twice a day for 7 days. On day 19 of age, retina flat mount was prepared from 4 mice out of the litter.
The mice were anesthetized by intraperitoneal administration of nembutal (1/10-fold diluted, 5 mg/mL) at 0.1 mL/mouse. The thoracic cavity was opened, and 1 mL of fluorescein isothiocyanate-dextran (FITC-dextran 20 mg/mL, FD2000S-1G, manufactured by SIGMA) was perfused from the heart.
After perfusion, the eyeball was immediately isolated, and fixed with 4% para-formaldehyde for 3-4 hr. The eyeball was anatomized to isolate retina, which as developed on a slide glass to prepare a flat mount. The whole retina area, avascular region and abnormal angiogenesis region were encircled with a stylus pen (CTE-640/S1, WACOM FVO) under a fluorescence microscope (ECLIPSE 80i, manufactured by Nikon), and measured using an analysis soft (WinROOF ver. 5.7.0, MITAMI Cor.), based on which the normal blood vessel region and abnormal angiogenesis region were calculated and compared.
normal blood vessel region (%): [{(whole retina area)−(area of avascular region)}/(whole retina area)]×100
abnormal angiogenesis region (%): {(abnormal angiogenesis region)/(whole retina area)}×100
In the same manner as in Experimental Example 1 except that test solution 2 was administered once a day, test solution 2 was intraperitoneally administered to model mouse for 7 days, and the normal blood vessel region and abnormal angiogenesis region thereof were measured.

[1] = test solution 1 (0.01 mg/mL) intraperitoneal twice a day for 7 days from day 12 of age, retina flat mount on day 19, 12 eyes
[2] = test solution 2 (0.01 mg/mL) intraperitoneal once a day for 7 days, 18 eyes

For CC(=O)Nc1nc(CCc2ccc(CC(=O)NN)cc2)cs1 [test substance 1, N-{4-[2-(4-hydrazinocarbonylmethylphenyl)ethyl]-1,3-thiazol-2-yl}acetamide], the “abnormal angiogenesis region (%)” value [1] was 7.04* %, the “normal blood vessel region (%)” value [1] was 93.44* % and the “avascular region (result in words)” value was “a decrease in the avascular region”. For the same molecule, the “effect on abnormal angiogenesis (result in words)” value was “a suppressive effect on abnormal angiogenesis”.

In the case of CC(=O)Nc1nc(CCc2ccc(CCNC(=N)N)cc2)cs1 [test substance 2, N-(4-{2-[4-(2-{[amino(imino)methyl]amino}ethyl)phenyl]ethyl}-1,3-thiazol-2-yl)acetamide], the “abnormal angiogenesis region (%)” value [2] is reported as 6.79* %, the “normal blood vessel region (%)” value [2] is reported as 94.69* % and the “avascular region (result in words)” value is reported as “a decrease in the avascular region”. The “effect on abnormal angiogenesis (result in words)” value was “a suppressive effect on abnormal angiogenesis”.
